Laboratory results taken from patent US20260250312A1, “ANTIBACTERIAL COMPOUNDS ELIMINATING DORMANT BACTERIAL CELLS” (UNIVERSITÉ D'AIX-MARSEILLE, priority 2022, published 2026).
“And” between values parts separate entries of the source, which are not always exact repeats. Equal values may be shown once.

Key:
[1] = tested on: Staphylococcus aureus (ATCC25923); experiment: Microdilution MIC assay (CLSI-based), S. aureus; format: cell-based; conditions: Staphylococcus aureus, ATCC25923, 20 h, 20 hours incubation at 35-37° C., MHB; read-out: Minimum inhibitory concentration S. aureus ATCC25923
Description: (§1) The antibacterial activity of compounds was measured using a standard microdilution assay based on the Clinical and Laboratory Standards Institute (CLSI) guidelines. This method was slightly modified. Indeed, assay volumes were increased to 200 μL to improve reproducibility. The chemical compounds to be tested were in the form of salts for biological testing.
(§2) Bacteria tested: Antibacterial activities of the compounds were tested on Staphylococcus aureus (ATCC25923), Enterococcus faecalis (ATCC29212), Escherichia coli ([…]) and Pseudomonas aeruginosa (ATCC27853).
(§3) Preparation of the Preculture: Mueller Hinton Agar plates were inoculated with frozen biological strain in order to obtain separate colonies and the plates were incubated during 24 h at 35-37° C. 3 colonies of similar aspect were picked out, resuspended in 5 mL of fresh Mueller Hinton broth 1× (MHB) and incubated with shaking (160 rpm) at 35-37° C. overnight.
(§4) 0.1 mL of bacteria in exponential phase were suspended in 9.9 mL of MHB (1:100 dilution). 0.1 mL of the 1:100 dilution were dispensed into the wells of microplates containing 0.1 ml of serial compounds dilutions to yield ca. 5×10^5 CFU/mL. In parallel, the stocks solutions of chemical compounds were first diluted in appropriate solvent to a final concentration of 5 mg/mL. 8 μL were dispended into the first wells of the microplates containing 0.1 ml of sterile broth and a 0.5 cascade dilution was performed in MHB from 0.2 mg/mL. One control was made for each strain tested. […] Tests were performed in triplicate.
(§5) Reading of the Results: After incubation, the filter was replaced with a transparent film, and an optical density reading was then taken in an iEMS plate spectrophotometer at 620 nm. Calculation of the minimum inhibitory concentration (MIC) was performed.

[2] = tested on: Enterococcus faecalis (ATCC29212); experiment: Microdilution MIC assay (CLSI-based), E. faecalis; format: cell-based; conditions: Enterococcus faecalis, ATCC29212, 20 h, 20 hours incubation at 35-37° C., MHB; read-out: Minimum inhibitory concentration E. faecalis ATCC29212
Description: as §1, §2, §3, §4, §5

[3] = tested on: Escherichia coli (ATCC28922); experiment: Microdilution MIC assay (CLSI-based), E. coli; format: cell-based; conditions: Escherichia coli, ATCC28922, 20 h, 20 hours incubation at 35-37° C., MHB; read-out: Minimum inhibitory concentration E. coli ATCC28922
Description: as §1, §2, §3, §4, §5

[4] = tested on: Pseudomonas aeruginosa (ATCC27853); experiment: Microdilution MIC assay (CLSI-based), P. aeruginosa; format: cell-based; conditions: Pseudomonas aeruginosa, ATCC27853, 20 h, 20 hours incubation at 35-37° C., MHB; read-out: Minimum inhibitory concentration P. aeruginosa ATCC27853
Description: as §1, §2, §3, §4, §5

CHO-K1 cells = experiment: WST1 cytotoxicity test; format: cell-based, Chinese hamster; conditions: Cricetulus griseus, CHO-K1, 24 h, WST1, 24 hours at 37° C.; read-out: IC50 CHO
From the text: Cytotoxicity: The test WST1 was used to measure the cytotoxic activity of the compounds of the invention. The test WST1 is a colorimetric test allowing to measure the viability and the degree of cell proliferation. It is based on cleavage of the colorless tetrazolium salts WST-1 (4—[3-(4-iodophenyl)-2-(4-nitrophenyl)-2H-5-tetrazolio]-1,3-benzene disulfonate) with mitochondrial dehydrogenases to the yellow-colored formazan derivative, which may be quantified by spectrophotometry at 420-480 nm. The WST1 test was performed on Chinese hamster ovary (CHO) cells. The CHO-K1 cells (ATCC, USA) were kept in culture in McCoy's 5A medium supplemented with 10% fetal calf serum, 2 mM of L-glutamine and a mixture of penicillin-streptomycin (100 U/ml: 10 μg/mL). The culture was incubated at 37° C. under an atmosphere enriched in CO2 (5%), and subcultured every two days. The cells were transferred into 96-well plates (25,000 cells/mL) in whole McCoy's 5A medium, and maintained for 24 hours at 37° C. under a humid atmosphere enriched in CO2 (5%). Increasing concentrations of tested compounds were added to the wells, each compound was tested in replicates and 8 growth controls containing the cells in the medium alone were included in each series of tests. After 24 hours at 37° C. (5% CO2), the culture medium was removed, the cells were rinsed in phosphate buffer (PBS) and 50 μL of PBS containing 10% of reagent WST1 were added to each well. After 20 minutes of incubation at 37° C., the results were read by spectrophotometry at 450 nm. The results are expressed in dose-response relationships, modeled by nonlinear regression analysis using the TableCurve software.
Cytotoxicity: The same WST1 test as described in Example 2 above was used.

| Compound | MIC [1] | MIC [2] | MIC [3] | MIC [4] | IC50 (CHO-K1 cells) |
| --- | --- | --- | --- | --- | --- |
| COC(=O)[C@H](C)NC(=O)CC[C@@H](C)[C@H]1CCC2C3C(CC[C@@]21C)[C@@]1(C)CC[C@H](NCCCNCCNCCCN)C[C@H]1C[C@H]3O (stereo partly drawn) [Compound S034, methyl ((4R)-4-((3S,5S,7R,10S,13R,17R)-3-((3-((2-((3-aminopropyl)amino)ethyl)amino)propyl)amino)-7-hydroxy-10,13-dimethylhexadecahydro-1H-cyclopenta[a]phenanthren-17-yl)pentanoyl)-L-alaninate] | 50 µM and 32 µg/mL | 6.25 µM and 4 µg/mL | 50 µM and 32 µg/mL | 100 µM and 64 µg/mL | 266 µM and 168 µg/mL |
| COC(=O)[C@H](NC(=O)CC[C@@H](C)[C@H]1CCC2C3C(CC[C@@]21C)[C@@]1(C)CC[C@H](NCCNCCNCCN)C[C@H]1C[C@H]3O)C(C)C (stereo partly drawn) [Compound S012, methyl ((4R)-4-((3S,5S,7R,10S,13R,17R)-3-((2-((2-((2-aminoethyl)amino)ethyl)amino)ethyl)amino)-7-hydroxy-10,13-dimethylhexadecahydro-1H-cyclopenta[a]phenanthren-17-yl)pentanoyl)-D-valinate] | 50 µM and 32 µg/mL | 25 µM and 16 µg/mL | 100 µM and 64 µg/mL | 100 µM and 64 µg/mL | 101 µM and 64.2 µg/mL |
| COC(=O)[C@H](NC(=O)CC[C@@H](C)[C@H]1CCC2C3C(CC[C@@]21C)[C@@]1(C)CC[C@H](NCCCCCCN)C[C@H]1C[C@H]3O)C(C)C (stereo partly drawn) [Compound S023, methyl ((4R)-4-((3S,5S,7R,10S,13R,17R)-3-((6-aminohexyl)amino)-7-hydroxy-10,13-dimethylhexadecahydro-1H-cyclopenta[a]phenanthren-17-yl)pentanoyl)-D-valinate] | 50 µM and 32 µg/mL | 100 µM and 64 µg/mL | 100 µM and 64 µg/mL | > 200 µM and > 120 µg/mL | 48.5 µM and 29.3 µg/mL |
| COC(=O)[C@H](NC(=O)CC[C@@H](C)[C@H]1CCC2C3C(CC[C@@]21C)[C@@]1(C)CC[C@H](NCCCNCCCNCCCN)C[C@H]1C[C@H]3O)C(C)C (stereo partly drawn) [Compound S011, methyl ((4R)-4-((3S,5S,7R,10S,13R,17R)-3-((3-((3-((3-aminopropyl)amino)propyl)amino)propyl)amino)-7-hydroxy-10,13-dimethylhexadecahydro-1H-cyclopenta[a]phenanthren-17-yl)pentanoyl)-D-valinate] | 12.5 µM and 8 µg/mL | 25 µM and 16 µg/mL | 12.5 µM and 8 µg/mL | 25 µM and 16 µg/mL | 1.17 µM and 0.79 µg/mL |
| COC(=O)[C@H](NC(=O)CC[C@@H](C)[C@H]1CCC2C3C(C[C@H](O)[C@@]21C)[C@@]1(C)CC[C@H](NCCCN2CCN(CCCN)CC2)C[C@H]1C[C@H]3O)C(C)C (stereo partly drawn) [Compound S059, methyl ((4R)-4-((3S,5S,7R,10S,12S,13R,17R)-3-((3-(4-(3-aminopropyl)piperazin-1-yl)propyl)amino)-7,12-dihydroxy-10,13-dimethylhexadecahydro-1H-cyclopenta[a]phenanthren-17-yl)pentanoyl)-D-valinate] | 50 µM and 32 µg/mL | > 200 µM and > 128 µg/mL | 200 µM and 128 µg/mL | > 200 µM and > 128 µg/mL | 56.1 µM and 39.5 µg/mL |
| COC(=O)[C@H](NC(=O)CC[C@@H](C)[C@H]1CCC2C3C(CC[C@@]21C)[C@@]1(C)CC[C@H](NCCN)C[C@H]1C[C@H]3O)C(C)C (stereo partly drawn) [Compound S008, methyl ((4R)-4-((3S,5S,7R,10S,13R,17R)-3-((2-aminoethyl)amino)-7-hydroxy-10,13-dimethylhexadecahydro-1H-cyclopenta[a]phenanthren-17-yl)pentanoyl)-D-valinate] | 25 µM and 16 µg/mL | 25 µM and 16 µg/mL | 25 µM and 16 µg/mL | 200 µM and 128 µg/mL | 86 µM and 47.1 µg/mL |
| COC(=O)[C@H](Cc1ccccc1)NC(=O)CC[C@@H](C)[C@H]1CCC2C3C(CC[C@@]21C)[C@@]1(C)CC[C@H](NCCCCN)C[C@H]1C[C@H]3O (stereo partly drawn) [Compound S030, methyl ((4R)-4-((3S,5S,7R,10S,13R,17R)-3-((4-aminobutyl)amino)-7-hydroxy-10,13-dimethylhexadecahydro-1H-cyclopenta[a]phenanthren-17-yl)pentanoyl)-L-phenylalaninate] | 100 µM and 64 µg/mL | 200 µM and 124 µg/mL | 50 µM and 32 µg/mL | > 200 µM and > 124 µg/mL | > 500 µM and > 311 µg/mL |
| COC(=O)[C@H](Cc1ccccc1)NC(=O)CC[C@@H](C)[C@H]1CCC2C3C(CC[C@@]21C)[C@@]1(C)CC[C@H](NCCN)C[C@H]1C[C@H]3O (stereo partly drawn) [Compound S015, methyl ((4R)-4-((3S,5S,7R,10S,13R,17R)-3-((2-aminoethyl)amino)-7-hydroxy-10,13-dimethylhexadecahydro-1H-cyclopenta[a]phenanthren-17-yl)pentanoyl)-L-phenylalaninate] | 12.5 µM and 8 µg/mL | 12.5 µM and 8 µg/mL | 12.5 µM and 8 µg/mL | 50 µM and 32 µg/mL | > 250 µM and > 149 µg/mL |
| COC(=O)[C@@H](Cc1ccccc1)NC(=O)CC[C@@H](C)[C@H]1CCC2C3C(CC[C@@]21C)[C@@]1(C)CC[C@H](NCCCNCCCN)C[C@H]1C[C@H]3O (stereo partly drawn) [Compound S028, methyl ((4R)-4-((3S,5S,7R,10S,13R,17R)-3-((3-((3-aminopropyl)amino)propyl)amino)-7-hydroxy-10,13-dimethylhexadecahydro-1H-cyclopenta[a]phenanthren-17-yl)pentanoyl)-D-phenylalaninate] | 12.5 µM and 8 µg/mL | 12.5 µM and 8 µg/mL | 6.25 µM and 4 µg/mL | 50 µM and 32 µg/mL | 54.6 µM and 36.4 µg/mL |
| COC(=O)[C@H](Cc1ccccc1)NC(=O)CC[C@@H](C)[C@H]1CCC2C3C(CC[C@@]21C)[C@@]1(C)CC[C@H](NCCCN2CCN(CCCN)CC2)C[C@H]1C[C@H]3O (stereo partly drawn) [Compound S025, methyl ((4R)-4-((3S,5S,7R,10S,13R,17R)-3-((3-(4-(3-aminopropyl)piperazin-1-yl)propyl)amino)-7-hydroxy-10,13-dimethylhexadecahydro-1H-cyclopenta[a]phenanthren-17-yl)pentanoyl)-L-phenylalaninate] | 25 µM and 16 µg/mL | 25 µM and 16 µg/mL | 25 µM and 16 µg/mL | 100 µM and 64 µg/mL | 3.7 µM and 2.72 µg/mL |
